Earlier results on 3 molecules are cited in patent US20140017308A1, “COMPOSITIONS COMPRISING A FATTY ACID OIL MIXTURE, A FREE FATTY ACID, AND A STATIN” (Pronova Biopharma Norge AS, priority 2010, published 2014).

For the series the following is noted: in vivo.

Take `CC[C@H](C)C(=O)O[C@H]1C[C@H](O)C=C2C=C[C@H](C)[C@H](CC[C@@H](O)C[C@@H](O)CC(=O)O)[C@H]21` [pravastatin]: the half-life (as a rule, the time needed for the level to fall by half in the phase considered) is “about 0.8 hours”. Regarding `CC(C)c1nc(N(C)S(C)(=O)=O)nc(-c2ccc(F)cc2)c1/C=C/[C@@H](O)C[C@@H](O)CC(=O)O` [rosuvastatin], the half-life result was “about 20 hours”. `CCC(C)(C)C(=O)O[C@H]1C[C@@H](C)C=C2C=C[C@H](C)[C@H](CC[C@@H]3C[C@@H](O)CC(=O)O3)[C@H]21` [simvastatin]: the half-life was 2 to 3 h.
